As usually defined, the melting point is the temperature, or range, at which the solid turns liquid. The term solubility denotes the concentration that dissolves in the medium under given conditions.

In brackets after ≈: the same amount, converted by molar mass. Read-outs that look alike come from different tables or passages of the source.

A short description of series [1]: Metabolic stability with rat hepatocytes cell culture (C.5.b). In kind it is in vitro ADME. To be noted: 5 μM. As to the method: Rat hepatocytes were isolated from male Sprague Dowley rats. The compounds were dissolved to a 5 mM stock solution in 100% DMSO and incubated at a final concentration of 5 μM for 0, 15, 30, 60 and 120 min with rat hepatocyte cell cultures (0.5 million viable cells/0.5 ml) using 24-well plates.
Samples were prepared for LC-MS by addition of two volumes of DMSO. The samples were thoroughly shaken and subsequently centrifuged at 900 g for 10 min (room temperature). All experiments were performed in triplicate. Of the resulting supernatant 50 μl was analysed by LC-MS.
For LC-MS, elution of samples was performed on a Hypersil BDS C18 column (50×4.6 mm, 5 μm, Thermohypersil, UK). The HPLC system comprised a Surveyor delivery system (Surveyor Inc., San Jose, US) equipped with a Surveyor autosampler device. Elution was with buffer A (10 mM ammoniumacetate (pH 6.9) in H2O/Acetonitrile (95:5)) and solvent B (acetonitrile) at a flow rate of 1.2 ml/min. The gradient employed was 0.5 min solvent A as start condition followed by increasing the organic phase concentration from 0% B till 95% B over 2 min in a linear fashion. This phase was kept stationary for a further 2 min and reduced again to 0% B within 0.5 min.
Total injection volume of samples was 50 μL. Column oven temperature was kept at 40° C. The LC flow was splitted for MS detection and 0.1 ml let into the source. An triple quadrupol mass spectrometer TSQ Quantum (Thermofinnigan, LaJolla, USA) mass spectrometer fitted with an ESI source was used for detection. Source voltage was set at 3800 volt, the capillary temperature at 300° C. The mass spectrometer was operated in positive ion mode in SIM adjusted to the mass of M+H with a scan width of 1 Da for quantification purposes. Instrument control, data acquisition and processing were performed using the Xcalibur software (ThermoFinnigan, San Jose, Calif., U.S.A). The metabolic stability of compounds in rat hepatocytes was expressed as in vitro half-lives.

Series [2] has as its system p21 promoter reporter A2780 tumour in nude mice. In words: p21 promoter induction, in vivo method, tumour fluorescence (C.6.c). To be noted: 20-40 mpk orally or intravenously daily during 6 days, ranked inactive, weaker, identical or better than R306465. As to the method: Another method tests the capacity of compounds to induce p21 as the consequence of HDAC inhibition at the cellular level. […] The reporter gene is a fluorescent protein and the expression of the reporter gene is measured as the amount of fluorescent light emitted (see example C.6.b.). The last method is an in vivo method wherein mice are used for screening the pharmaceutical activity of a compound. The above described stably transformed tumour cells can be administered to mice in an amount sufficient to effect production of a tumour. After the tumour cells had sufficient time to form a tumour, a potentially active compound can be administered to the animals and the effect of said compound on the tumour cells is evaluated by measuring the expression of the reporter gene. Incubation with pharmaceutical active compounds will result in an increase of reporter gene expression compared to the control levels (see example C.6.c.)
A selected clone was injected subcutaneous (10^7 cells/200 μl) into the flank of nude mice and a calliper measurable tumour was obtained after 12 days. […] Tumours were evaluated for fluorescence by the in-house developed Automated Whole Body Imaging System (Fluorescent stereomicroscope type Olympus® SZX12 equipped with a GFP filter and coupled to a CCD camera type JAI® CV-M90 controlled by a software package based on the IMAQ Vision Software from National Instruments®). […]

Experiment in series [3]: not given
This is another data set of the same source.

In series [4] the target is histone deacetylase (HeLa nuclear extracts). In words: In vitro assay for inhibition of histone deacetylase with [3H]-labelled substrate (C.1.a). It counts as biochemical. The conditions noted are these: [3H]-acetylated histone H4 peptide substrate. The protocol:
As a substrate for measuring HDAC activity a synthetic peptide, i.e. the amino acids 14-21 of histone H4, was used. The substrate is biotinylated at the NH2-terminal part with a 6-aminohexanoic acid spacer, and is protected at the COOH-terminal part by an amide group and specifically [^3H]acetylated at lysine 16. The substrate, biotin-(6-aminohexanoic)Gly-Ala-([^3H]-acetyl-Lys-Arg-His-Arg-Lys-Val-NH2), was added in a buffer containing 25 mM Hepes, 1 M sucrose, 0.1 mg/ml BSA and 0.01% Triton X-100 at pH 7.4. After 30 min the deacetylation reaction was terminated by the addition of HCl and acetic acid. (final concentration 0.035 mM and 3.8 mM respectively). After stopping the reaction, the free ^3H-acetate was extracted with ethylacetate. After mixing and centrifugation, the radioactivity in an aliquot of the upper (organic) phase was counted in a β-counter.
For each experiment, controls (containing HeLa nuclear extract and DMSO without compound), a blank incubation (containing DMSO but no HeLa nuclear extract or compound) and samples (containing compound dissolved in DMSO and HeLa nuclear extract) were run in parallel. In first instance, compounds were tested at a concentration of 10^−5M. […] In each test the blank value was subtracted from both the control and the sample values. The control sample represented 100% of substrate deactylation. For each sample the radioactivity was expressed as a percentage of the mean value of the controls. […] Herein the effects of test compounds are expressed as pIC50 (the negative log value of the IC50-value) (see Table F-3).

Series [5] deals with A2780 ovarian carcinoma cells. In words: Antiproliferative activity on A2780 cells, MTT (C.2). In kind it is cell-based. To be noted: Homo sapiens, 96 h, four days of incubation, read-out: Cellular activity pIC50 C.2 (converted). The protocol:
All compounds tested were dissolved in DMSO and further dilutions were made in culture medium. Final DMSO concentrations never exceeded 0.1% (v/v) in cell proliferation assays. Controls contained A2780 cells and DMSO without compound and blanks contained DMSO but no cells. MTT was dissolved at 5 mg/ml in PBS. A glycine buffer comprised of 0.1 M glycine and 0.1 M NaCl buffered to pH 10.5 with NaOH (1N) was prepared (all reagents were from Merck).
The human A2780 ovarian carcinoma cells (a kind gift from Dr. T. C. Hamilton [Fox Chase Cancer Centre, Pennsylvania, USA]) were cultured in RPMI 1640 medium supplemented with 2 mM L-glutamine, 50 μg/ml gentamicin and 10% fetal calf serum. Cells were routinely kept as monolayer cultures at 37° C. in a humidified 5% CO2 atmosphere. Cells were passaged once a week using a trypsin/EDTA solution at a split ratio of 1:40. All media and supplements were obtained from Life Technologies. Cells were free of mycoplasma contamination as determined using the Gen-Probe Mycoplasma Tissue Culture kit (supplier: BioMerieux).
Cells were seeded in NUNC™ 96-well culture plates (Supplier: Life Technologies) and allowed to adhere to the plastic overnight. Densities used for plating were 1500 cells per well in a total volume of 200 μl medium. After cell adhesion to the plates, medium was changed and drugs and/or solvents were added to a final volume of 200 μl. Following four days of incubation, medium was replaced by 200 μl fresh medium and cell density and viability was assessed using an MTT-based assay. To each well, 25 μl MTT solution was added and the cells were further incubated for 2 hours at 37° C. The medium was then carefully aspirated and the blue MTT-formazan product was solubilized by addition of 25 μl glycine buffer followed by 100 μl of DMSO. […] Within an experiment, the results for each experimental condition are the mean of 3 replicate wells. For initial screening purposes, compounds were tested at a single fixed concentration of 10^−6 M. For active compounds, the experiments were repeated to establish full concentration-response curves. For each experiment, controls (containing no drug) and a blank incubation (containing no cells or drugs) were run in parallel. The blank value was subtracted from all control and sample values. For each sample, the mean value for cell growth (in absorbance units) was expressed as a percentage of the mean value for cell growth of the control. […] Herein the effects of test compounds are expressed as pIC50 (the negative log value of the IC50-value)(see Table F-3).

Series [6] can be described thus: Solubility/stability at different pH's, chemiluminescent nitrogen detector (C.3.b). It counts as physicochemical. The conditions noted are these: aqueous buffer; pH = 2.3. An excerpt: In a second method the solubility of a compound at different pH's can be measured with the use of a Chemiluminescent Nitrogen Detector (see example C.3.b).
The solubility of a compound, at different pH's, can also be measured with the use of a chemiluminescent nitrogen detector. (see Table F-3).

Series [7] has as its target histone deacetylase (HeLa nuclear extracts). As to the kind of experiment: In vitro assay for inhibition of histone deacetylase with fluorescent-labelled substrate (C.1.b). It counts as biochemical. The conditions noted are these: Fluor de Lys substrate. The protocol:
The HDAC Fluorescent Activity Assay/Drug Discovery Kit of Biomol (cat.No: AK-500-0001) was used. The HDAC Fluorescent Activity Assay is based on the Fluor de Lys (Fluorogenic Histone deAcetylase Lysyl) substrate and developer combination. The Fluor de Lys substrate, comprises an acetylated lysine side chain. Deacetylation of the substrate sensitizes the substrate so that, in the second step, treatment with the Fluor de Lys developer produces a fluorophore.
After 30 min, 1 volume of the developer was added. […] For each experiment, controls (containing HeLa nuclear extract and buffer), a blank incubation (containing buffer but no HeLa nuclear extract) and samples (containing compound dissolved in DMSO and further diluted in buffer and HeLa nuclear extract) were run in parallel. In first instance, compounds were tested at a concentration of 10^−5M. […] All sample were tested 4 times. In each test the blank value was subtracted from both the control and the sample values. The control sample represented 100% of substrate deactylation. For each sample the fluorescence was expressed as a percentage of the mean value of the controls. […] Herein the effects of test compounds are expressed as pIC50 (the negative log value of the IC50-value) (see Table F-3).

Regarding `COc1cc(N)c(Cl)cc1C(=O)NC1CCN(CCCOc2ccc(F)cc2)CC1OC` (stereo not drawn) [Cisapride], where the note is “human, 15 min, 5 μM”, the “% metabolism” value came out at 45%.

`Cn1cc(CNCC2CCN(c3ncc(C(=O)NO)cn3)CC2)c2ccccc21` [Compound 1] gave an in vitro half-live in series [1] of 81 min. In addition, the “tumour fluorescence ranking versus R306465” value in series [2] is recorded as “better than R306465”.

Compound `CN(CCc1c[nH]c2ccccc12)CC1CCN(c2ncc(C(=O)NO)cn2)CC1` [Compound 3] displayed a melting point in series [3] of 121 °C. Moreover, the “Enzymatic activity pIC50 C.1.a.” value in series [4] was found to be 8.5. The IC50 in series [5] is 200 nM.

As to `O=C(NO)c1cnc(N2CCC(CNCCc3c[nH]c4ccccc34)CC2)nc1` [Compound 5], in series [1], the in vitro half-live was 60 min. Besides, in series [4], the “Enzymatic activity pIC50 C.1.a.” value amounted to 8.6. In series [5], the IC50 is 316 nM. The compound also displayed a solubility in series [6] of 2000 µg/mL (≈ 5.07 mM).

In the case of `Cn1cc(CNC2CCN(c3ncc(C(=O)NO)cn3)CC2)c2ccccc21` [Compound 6], in series [4], the “Enzymatic activity pIC50 C.1.a.” value was found to be 8.2. Further, the IC50 in series [5] is 501 nM.

Turning to `O=C(NO)c1cnc(N2CCC(NCc3c[nH]c4ccccc34)CC2)nc1` [Compound 7], the “Enzymatic activity pIC50 C.1.a.” value in series [4] turned out to be 8.5. The IC50 in series [5] is 794 nM.

With `CN(CCc1cn(C)c2ccccc12)CC1CCN(c2ncc(C(=O)NO)cn2)CC1` [Compound 21], the melting point in series [3] was found to be 83 °C. The “Enzymatic activity pIC50 C.1.b” value in series [7] stood at 8.5. The IC50 in series [5] was 25.1 nM. This compound also registered a solubility in series [6] of 1900 µg/mL (≈ 4.5 mM).

The compound `COc1ccc2c(CCNCC3CCN(c4ncc(C(=O)NO)cn4)CC3)cn(C)c2c1` [Compound 24] returned a melting point in series [3] of 160 °C. Moreover, the “Enzymatic activity pIC50 C.1.b” value in series [7] was 7.6. The IC50 in series [5] was 316 nM. Besides, the solubility in series [6] was determined as 1600 µg/mL (≈ 3.65 mM).

For `O=C(NO)c1cnc(N2CCN(S(=O)(=O)c3ccc4ccccc4c3)CC2)nc1` [Compound R306465, reference compound], the in vitro half-live in series [1] is on record as 8 min.

For `CCCO` [propanol], the “% metabolism” value (15 min incubation with microsomes, compound 5 μM) was found to be 25%.
